Values quoted from earlier work as cited in US20220315503A1, “METHODS FOR PRODUCING TREATED MANURE” (COMMONWEALTH SCIENTIFIC AND INDUSTRIAL RESEARCH ORGANISATION, priority 2019, published 2022).
Like-named read-outs stand apart in the source and are kept apart here.

Legend:
enteric CH4 emission [1] = conditions: beef cattle; administered in animal feed
enteric CH4 emission [2] = conditions: sheep
enteric CH4 emission [3] = conditions: dairy cattle
[4] = system: production of CH4 in rumen fluid
[5] = initial concentrations 132 to 177 μg/L; 1.5 hours packed-bed detention time

SMILES: O=[N+]([O-])OCCCO [3NOP, 3-nitrooxypropanol]
- reduction of CH4 emission (enteric CH4 emission [1]): 59%
- reduction in CH4 emissions (enteric CH4 emission [2]): 24%
- reduction in CH4 emissions (enteric CH4 emission [3]): up to 60%
- overall CH4 yield of spiked feces (CH4 yield of feces; feces spiked with 200 mg kg^−1 dry matter): no significant difference
- downstream effect on CH4 emissions of the feces (CH4 yield of feces; inhibitor included in animal diets): no significant downstream effect

SMILES: BrC(Br)Br [bromoform, tribromomethane]
- production of CH4 compared to control in rumen fluid ([4]; concentration of 1 μM): inhibit the production of CH4
- production of CH4 compared to control in rumen fluid ([4]; concentrations ≥5 μM): inhibit the production of CH4
- reduction (degradation) under anaerobic conditions [5]: > 99%

SMILES: ClC(Br)Br [dibromochloromethane]
- production of CH4 compared to control in rumen fluid ([4]; concentration of 1 μM): inhibit the production of CH4
- production of CH4 compared to control in rumen fluid ([4]; concentrations ≥5 μM): inhibit the production of CH4
